Test results as given in patent publication US10947242B2, “[1,2,4]triazolo[1,5and#8208;A]pyrimidine compounds as PDE2 inhibitors” (Janssen Pharmaceutica NV, priority 2016, dated 2021).
Read-outs that look alike come from different tables or passages of the source.

Key:
[1] = biological target: T1, Human recombinant PDE2A (hPDE2A) (Homo sapiens, UniProt O00408); experiment: In vitro assay PDE2A (SPA, 3H-cGMP hydrolysis); type: biochemical; details: for Emax: read-out: hPDE2A Emax
T1 construct: His tag (inferred from metal chelate purification); made in house; host or cells: Sf9 insect cells (baculovirus)

[2] = biological target: T2, Human recombinant PDE10A (hPDE10A) (Homo sapiens, UniProt Q9Y233); experiment: In vitro assay PDE10A, human clone (SPA, 3H-cAMP hydrolysis); type: biochemical
T2 construct: His tag (inferred from metal chelate purification); made in house; host or cells: Sf9 insect cells (baculovirus)
Procedure, shortened: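 Hydrolysis of 3H-cAMP (60 nM cAMP, 0.008 μCi tracer) proceeded for 60 min at room temperature, with the product detected by SPA bead scintillation counting. The enzyme was hPDE10A from baculovirus-infected Sf9 cells in Tris pH 7.8 buffer with MgCl2 and EGTA, and compounds were at 1% DMSO final. Blanks lacked enzyme.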

[3] = biological target: T3, Human recombinant PDE3A (hPDE3A) (Homo sapiens, UniProt Q14432); experiment: In vitro assay PDE3A (SPA, 3H-cAMP hydrolysis); type: biochemical; details: for IC50: hPDE3B pIC50, read-out: pIC50 (converted); for Emax: read-out: hPDE3B Emax, read-out: Emax;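 for all read-outs here: the method names PDE3A and the table heading PDE3B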
T3 construct: purchased Scottish Biomedical; host or cells: Sf9 insect cells
Procedure, shortened: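 Radiometric SPA measuring [3H]-cAMP hydrolysis (0.4 μM cAMP, 2.4 μCi/ml) over 60 min at room temperature, in Tris pH 7.8 buffer with MgCl2 and EGTA, 1% DMSO. Enzyme: recombinant human brain PDE3A expressed in Sf9 cells, used as partially purified lysate. Counts compared with enzyme-free blanks and vehicle controls.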

PDE2A = biological target: T4, PDE2A (Rattus norvegicus, UniProt Q01062); experiment: PDE2 occupancy by test compounds, ex-vivo autoradiography with [3H]B-17a; type: in vivo, Male Wistar rats; details: for receptor occupancy at 10 mg/kg: percentage receptor occupancy, ex-vivo autoradiography, striatum
T4 construct: Twenty μm-thick striatal sections were cut; from tissue; host or cells: rat brain, striatal sections
T4 sequence (Q01062 1-928): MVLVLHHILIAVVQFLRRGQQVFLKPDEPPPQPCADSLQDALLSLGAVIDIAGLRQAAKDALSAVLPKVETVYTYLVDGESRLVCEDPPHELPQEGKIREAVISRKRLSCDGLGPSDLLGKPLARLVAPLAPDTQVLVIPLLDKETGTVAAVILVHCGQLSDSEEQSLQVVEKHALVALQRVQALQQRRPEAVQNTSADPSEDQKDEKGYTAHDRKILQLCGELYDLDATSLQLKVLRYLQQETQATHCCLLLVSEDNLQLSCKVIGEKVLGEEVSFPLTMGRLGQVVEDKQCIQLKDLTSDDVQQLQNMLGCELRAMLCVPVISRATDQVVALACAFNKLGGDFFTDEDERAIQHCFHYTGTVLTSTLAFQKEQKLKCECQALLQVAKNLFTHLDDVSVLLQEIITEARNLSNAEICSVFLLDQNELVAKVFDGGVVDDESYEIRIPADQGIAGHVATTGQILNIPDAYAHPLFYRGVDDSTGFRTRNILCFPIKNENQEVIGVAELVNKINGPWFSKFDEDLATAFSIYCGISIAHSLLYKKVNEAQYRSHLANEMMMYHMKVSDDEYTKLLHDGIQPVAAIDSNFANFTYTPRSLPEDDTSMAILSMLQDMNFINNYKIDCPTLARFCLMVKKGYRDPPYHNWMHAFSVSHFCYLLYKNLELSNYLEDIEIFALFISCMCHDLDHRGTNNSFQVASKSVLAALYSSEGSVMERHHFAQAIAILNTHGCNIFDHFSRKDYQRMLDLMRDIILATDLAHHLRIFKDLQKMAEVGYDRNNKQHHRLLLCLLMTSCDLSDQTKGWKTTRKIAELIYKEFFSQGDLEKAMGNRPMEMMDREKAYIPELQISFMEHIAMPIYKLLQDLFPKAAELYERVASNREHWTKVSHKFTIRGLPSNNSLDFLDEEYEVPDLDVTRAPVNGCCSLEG

[4] = human recombinant PDE2A, 10 μM cGMP substrate, read-out: hPDE2A pIC50 (converted)
[5] = read-out: hPDE2A pIC50 (converted)
[6] = human clone (h), default, read-out: hPDE10A2 Emax
[7] = human clone (h), default, read-out: hPDE10A2 pIC50 (converted)
[8] = human clone by default (no (r) mark), read-out: hPDE10A2 or rPDE10A2 Emax
[9] = human clone by default (no (r) mark), read-out: hPDE10A2 or rPDE10A2 pIC50 (converted)

T2 sequence (Q9Y233 267-1055): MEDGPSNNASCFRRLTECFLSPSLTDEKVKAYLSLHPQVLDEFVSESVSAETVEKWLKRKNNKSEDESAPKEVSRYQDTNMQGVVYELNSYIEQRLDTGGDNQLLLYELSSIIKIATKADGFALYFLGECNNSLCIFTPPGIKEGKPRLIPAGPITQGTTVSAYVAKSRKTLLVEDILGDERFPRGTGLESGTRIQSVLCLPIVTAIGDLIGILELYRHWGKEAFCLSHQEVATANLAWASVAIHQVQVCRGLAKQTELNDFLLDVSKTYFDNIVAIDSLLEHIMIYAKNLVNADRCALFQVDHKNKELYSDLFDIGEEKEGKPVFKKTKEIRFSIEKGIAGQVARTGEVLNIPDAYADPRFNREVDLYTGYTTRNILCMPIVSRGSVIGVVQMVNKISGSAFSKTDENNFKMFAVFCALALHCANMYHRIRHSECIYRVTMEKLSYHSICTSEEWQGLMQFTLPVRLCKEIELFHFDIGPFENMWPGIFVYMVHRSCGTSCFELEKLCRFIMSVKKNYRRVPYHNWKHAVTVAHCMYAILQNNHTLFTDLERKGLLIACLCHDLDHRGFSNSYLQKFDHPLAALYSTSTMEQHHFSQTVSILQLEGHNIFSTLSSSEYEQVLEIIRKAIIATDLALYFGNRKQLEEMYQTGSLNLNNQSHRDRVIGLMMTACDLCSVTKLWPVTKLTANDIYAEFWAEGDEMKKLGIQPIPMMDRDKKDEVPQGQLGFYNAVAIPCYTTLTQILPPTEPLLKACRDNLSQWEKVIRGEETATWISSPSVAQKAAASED
T3 sequence (Q14432 whole entry): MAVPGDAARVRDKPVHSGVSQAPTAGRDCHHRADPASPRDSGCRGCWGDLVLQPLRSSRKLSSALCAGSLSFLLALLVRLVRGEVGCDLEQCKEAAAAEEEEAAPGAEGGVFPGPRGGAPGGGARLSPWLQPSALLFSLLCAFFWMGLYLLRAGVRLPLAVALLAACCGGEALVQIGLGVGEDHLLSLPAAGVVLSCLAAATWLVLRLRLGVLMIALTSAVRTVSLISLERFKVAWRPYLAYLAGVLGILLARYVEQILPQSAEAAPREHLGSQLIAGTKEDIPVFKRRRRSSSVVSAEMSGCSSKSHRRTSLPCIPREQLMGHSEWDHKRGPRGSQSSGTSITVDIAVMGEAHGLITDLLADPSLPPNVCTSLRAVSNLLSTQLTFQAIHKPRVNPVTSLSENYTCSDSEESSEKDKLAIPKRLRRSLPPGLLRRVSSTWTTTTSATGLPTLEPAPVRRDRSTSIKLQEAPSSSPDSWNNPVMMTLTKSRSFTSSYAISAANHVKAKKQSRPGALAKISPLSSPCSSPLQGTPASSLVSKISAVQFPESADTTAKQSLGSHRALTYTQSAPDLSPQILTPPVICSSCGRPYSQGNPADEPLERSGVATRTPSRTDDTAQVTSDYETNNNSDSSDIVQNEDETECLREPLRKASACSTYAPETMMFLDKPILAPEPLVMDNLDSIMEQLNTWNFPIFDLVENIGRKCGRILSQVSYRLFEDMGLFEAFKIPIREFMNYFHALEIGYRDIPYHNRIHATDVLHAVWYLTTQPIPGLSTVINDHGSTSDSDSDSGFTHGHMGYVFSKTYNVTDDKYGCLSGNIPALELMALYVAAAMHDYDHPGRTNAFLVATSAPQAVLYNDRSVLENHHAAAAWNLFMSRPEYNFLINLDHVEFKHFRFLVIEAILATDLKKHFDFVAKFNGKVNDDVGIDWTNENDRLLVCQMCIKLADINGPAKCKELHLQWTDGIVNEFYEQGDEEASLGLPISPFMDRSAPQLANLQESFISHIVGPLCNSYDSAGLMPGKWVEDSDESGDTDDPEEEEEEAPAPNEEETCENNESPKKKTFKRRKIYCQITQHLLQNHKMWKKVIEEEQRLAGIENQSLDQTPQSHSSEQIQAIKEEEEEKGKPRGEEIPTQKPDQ
T1 sequence (O00408 whole entry): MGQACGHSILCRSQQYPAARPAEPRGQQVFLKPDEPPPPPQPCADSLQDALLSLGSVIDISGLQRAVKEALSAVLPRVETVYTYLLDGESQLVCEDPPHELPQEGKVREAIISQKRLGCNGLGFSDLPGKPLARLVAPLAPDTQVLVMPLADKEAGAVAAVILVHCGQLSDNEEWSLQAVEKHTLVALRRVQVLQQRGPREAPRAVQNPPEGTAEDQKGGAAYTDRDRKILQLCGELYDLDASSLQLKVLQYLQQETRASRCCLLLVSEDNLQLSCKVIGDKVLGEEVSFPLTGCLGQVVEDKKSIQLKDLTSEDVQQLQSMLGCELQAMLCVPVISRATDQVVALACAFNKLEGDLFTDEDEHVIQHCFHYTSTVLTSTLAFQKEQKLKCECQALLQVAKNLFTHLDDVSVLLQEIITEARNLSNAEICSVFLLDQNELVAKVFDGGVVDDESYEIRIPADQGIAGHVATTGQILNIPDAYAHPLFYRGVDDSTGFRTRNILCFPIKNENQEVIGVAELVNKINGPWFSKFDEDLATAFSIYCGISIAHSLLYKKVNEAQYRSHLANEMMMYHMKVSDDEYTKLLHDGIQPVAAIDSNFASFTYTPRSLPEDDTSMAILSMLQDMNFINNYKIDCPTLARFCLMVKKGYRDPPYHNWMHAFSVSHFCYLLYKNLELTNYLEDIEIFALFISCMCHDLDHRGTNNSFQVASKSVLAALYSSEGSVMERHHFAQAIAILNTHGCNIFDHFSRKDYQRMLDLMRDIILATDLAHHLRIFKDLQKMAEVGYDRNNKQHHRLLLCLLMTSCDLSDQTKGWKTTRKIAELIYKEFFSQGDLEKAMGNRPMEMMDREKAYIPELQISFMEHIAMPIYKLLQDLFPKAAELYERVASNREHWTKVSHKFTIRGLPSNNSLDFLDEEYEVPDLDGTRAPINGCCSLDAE

SMILES	IC50 [1, 4] [nM]	Emax ([1]; human recombinant PDE2A) [%]	Emax [1] [%]	IC50 [1, 5] [nM]	Emax [2, 6] [%]	IC50 [2, 7] [nM]	IC50 [3] [nM]	Emax [3] [%]	receptor occupancy at 10 mg/kg (PDE2A; sc, route SC (subcutaneous)) [%]	receptor occupancy at 10 mg/kg (PDE2A; po, route PO (oral)) [%]	IC50 ([1]; hPDE2A pIC50) [nM]	IC50 ([1]; hPDE2A pIC50, human recombinant PDE2A, 10 μM cGMP substrate) [nM]	Emax [2, 8] [%]	IC50 [2, 9] [nM]	receptor occupancy at 10 mg/kg (PDE2A; route PO (oral)) [%]	ED50 (PDE2A; route PO (oral), drug dose producing 50% receptor occupancy, read-out: PDE Occupancy ED50) [mg/kg]
COc1c(C)cc(C(=O)N2CC[C@@H](C)[C@](F)(c3cc(C(F)F)nc4ncnn34)C2)cc1C [Compound 74]	30.2	101	101	30.2	36	> 10000	> 10000	30	14	–	–	–	–	–	–	–
COc1ncc(C(=O)N2CC[C@@H](C)[C@H](c3cc(C(F)F)nc4ncnn34)C2)cc1Cl [Compound 134]	3.16	101	101	3.16	100	158	2240	84	–	21	–	–	–	–	–	–
Cc1cc(C(=O)N2CC[C@@H](C)[C@H](c3cc(C(F)F)nc4ncnn34)C2)cc(C(C)C)n1 [Compound 101]	0.661	101	101	0.661	98	57.5	4790	70	43	–	–	–	–	–	–	–
Cc1nc2cccc(C(=O)N3CC[C@@H](C)[C@H](c4cc(C(F)F)nc5ncnn45)C3)c2o1 [Compound 50]	3.09	100	100	3.09	93	724	> 10000	61	–	-30	–	–	–	–	–	–
COc1cc(C(=O)N2CC[C@@H](C)[C@H](c3cc(C(F)F)nc4ncnn34)C2)c(C)cn1 [Compound 53]	5.62	100	100	5.62	89	776	6760	62	–	22	–	–	–	–	–	–
Cc1cc(C(=O)N2CC[C@@H](C)[C@H](c3cc(C(F)F)nc4ncnn34)C2)cc(C)c1C#N [Compound 78]	–	–	102	–	98	105	1580	87	77	–	1	1	–	–	–	–
Cn1cc(C(=O)N2[C@H]3CC[C@H](c4cc(C(F)F)nc5ncnn45)[C@@H]2CC3)c2ccccc21 [Compound 297]	–	–	97	2.34	–	–	5890	62	–	–	–	–	96	589	-2	–
COc1nc(N)ncc1C(=O)N1CC[C@@H](C)[C@H](c2cc(C(F)F)nc3ncnn23)C1 [Compound 38]	6.17	100	100	6.17	80	2290	> 10000	43	–	1	–	–	–	–	–	–
C[C@@H]1CCN(C(=O)c2cc(C3CC3)ncc2F)C[C@H]1c1cc(C(F)F)nc2ncnn12 [Compound 269]	–	–	101	0.708	93	692	3720	78	–	22	–	–	93	692	–	24.2
C[C@@H]1CCN(C(=O)c2ccc3c(c2)OCCC3)C[C@H]1c1cc(C(F)F)nc2ncnn12 [Compound 96]	0.55	100	100	0.55	95	33.1	398	73	–	1	–	–	–	–	–	–
Cc1cc(C(=O)N2[C@H]3CC[C@H](c4cc(C(F)F)nc5ncnn45)[C@@H]2CC3)cc(C)c1F [Compound 346]	–	–	100	5.25	–	–	6030	68	–	–	–	–	92	724	19	–
